Values after ≈ are worked out from the molar mass of the structure shown.
System: Crotalus adamanteus
Assay: Inhibition of Crotalus adamanteus venom PLA2

Q: Which ED50 does the source give for `CCCCCCCCCCCCCCCCCCCC[C@@H](O)C(=O)N[C@@H](CO)[C@H](O)[C@H](O)CCCCCCCCCC(C)C` here?
A: The ED50 was 100 µg/mL (≈ 159 µM).

Source: ChEMBL document CHEMBL1142629, “New lipids from the tunicate Cystodytes cf. dellechiajei, as PLA2 inhibitors” (J Nat Prod, 2000)
